Test results published in the supplement of paper PMC10307832.

Assays:
Experiment in all cases: relative viability (nuclei count vs DMSO), 5 days (fraction); higher = more cells survive
[1] = compound: C1=CC=C2C(=C1)N=C(S2)C(C#N)C3=NC(=NC=C3)NCCC4=CN=CC=C4 + CS(=O)(=O)N1CCN(Cc2cc3nc(-c4cccc5[nH]ncc45)nc(N4CCOCC4)c3s2)CC1 [Pictilisib] (partner 1 µM)
Outline: (§1)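 One day after seeding in 1536-well plates, lung cancer cell lines were dosed by pin tool. Dosing was either single-drug or a fixed anchor-drug dose plus five library-drug doses (not always all listed) in √10 steps. After 5 days, nuclei were stained in one fix-and-stain step and counted on 4× images, and relative viability is the nuclei count of treated wells over that of vehicle wells, given as the median of duplicate plates.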

NVP-TAE684 + Foretinib = compound: COc1cc(N2CCC(N3CCN(C)CC3)CC2)ccc1Nc1ncc(Cl)c(Nc2ccccc2S(=O)(=O)C(C)C)n1 [NVP-TAE684] + COc1cc2c(Oc3ccc(NC(=O)C4(C(=O)Nc5ccc(F)cc5)CC4)cc3F)ccnc2cc1OCCCN1CCOCC1 [Foretinib] (partner 0.25 µM)
Outline: as §1

Vandetanib + Trametinib = compound: COc1cc2/c(=N/c3ccc(Br)cc3F)nc[nH]c2cc1OCC1CCN(C)CC1 [Vandetanib] + CC(=O)Nc1cccc(-n2c(=O)n(C3CC3)c(=O)c3c(Nc4ccc(I)cc4F)n(C)c(=O)c(C)c32)c1 [Trametinib] (partner 0.02 µM)
Outline: as §1

Vandetanib + Luminespib = compound: COc1cc2/c(=N/c3ccc(Br)cc3F)nc[nH]c2cc1OCC1CCN(C)CC1 [Vandetanib] + CCNC(=O)c1noc(-c2cc(C(C)C)c(O)cc2O)c1-c1ccc(CN2CCOCC2)cc1 [Luminespib] (partner 0.01 µM)
Outline: as §1

Cell Line	relative viability ([1]; first compound 0.01581 µM)	relative viability ([1]; first compound 0.05 µM)	relative viability ([1]; first compound 0.1581 µM)	relative viability ([1]; first compound 0.5 µM)	relative viability (NVP-TAE684 + Foretinib; first compound 0.2 µM)	relative viability (NVP-TAE684 + Foretinib; first compound 0.6325 µM)	relative viability (NVP-TAE684 + Foretinib; first compound 2 µM)	relative viability (Vandetanib + Trametinib; first compound 0.02 µM)	relative viability (Vandetanib + Trametinib; first compound 0.06325 µM)	relative viability (Vandetanib + Trametinib; first compound 0.2 µM)	relative viability (Vandetanib + Trametinib; first compound 0.6325 µM)	relative viability (Vandetanib + Trametinib; first compound 2 µM)	relative viability (Vandetanib + Luminespib; first compound 0.02 µM)	relative viability (Vandetanib + Luminespib; first compound 0.06325 µM)	relative viability (Vandetanib + Luminespib; first compound 0.2 µM)	relative viability (Vandetanib + Luminespib; first compound 0.6325 µM)	relative viability (Vandetanib + Luminespib; first compound 2 µM)	relative viability ([1]; first compound 0.005 µM)
NCI-H441	0.458	0.549	0.55	0.494	0.892	0.832	0.382	0.527	0.467	0.43	0.405	0.351	0.376	0.392	0.208	0.409	0.45	
NCI-H460	0.306	0.358	0.506	0.353	1.2	1.02	0.817	0.141	0.147	0.157	0.148	0.123	0.0345	0.0344	0.0312	0.0333	0.0336	0.355
NCI-H520	0.328	0.307	0.362	0.256	0.712	0.979	0.51	0.627	0.642	0.577	0.687	0.68	0.206	0.218	0.222	0.253	0.209	0.178
NCI-H596	0.349	0.383	0.46	0.392	0.932	0.734	0.649	0.773	0.763	0.756	0.758	0.634	0.915	0.89	0.81	1.02	0.771	0.378
NCI-H647	0.301	0.391	0.556	0.452	1.09	1.21	1.16	0.458	0.474	0.469	0.451	0.436	0.334	0.337	0.0629	0.283	0.285	
NCI-H650	0.845	0.804	0.934	0.901	0.983	1	0.753	0.995	0.927	0.947	0.929	0.981	0.843	0.667		0.992	0.766	0.728
NCI-H661	0.358	0.44	0.403	0.211	1.19	1.05	0.779	0.55	0.543	0.63	0.601	0.532	0.912	0.914	0.869	0.934	0.978	0.382
NCI-H727	0.304	0.299	0.473	0.37	0.855	0.818	0.38	0.417	0.379	0.366	0.364	0.329	0.591	0.349	0.247	0.252	0.316	0.553
NCI-H838	0.413	0.439	0.612	0.391	0.971	1.05	0.628	0.528	0.463	0.539	0.484	0.533	0.354	0.353	0.145	0.333	0.278	0.463
NCI-H1355	0.388	0.365	0.503	0.439	0.9	0.989	0.428	0.412	0.426	0.438	0.465	0.402	0.618	0.731	0.838	0.685	0.698	0.535
NCI-H1395		0.651	0.781	0.81	1.1		0.807	1.06	1.01	0.956	1.13	1.05	0.715	0.539	0.729	0.6	0.879	0.602
NCI-H1437	0.39	0.398	0.539	0.361	1.25	1.27	1.29	0.592	0.466	0.557	0.432	0.517	1.12	1.09	0.255	1.21	1.06	0.474
NCI-H1650	0.529	0.559	0.723	0.471	1.06	1.14	0.556	0.618	0.409	0.461	0.483	0.364	0.198	0.216	0.161	0.21	0.154	0.488
NCI-H1651	0.585	0.68	0.815	0.565	0.802	0.883	0.774	0.822	0.818	0.83	0.876	0.727	1.09	1.01	0.171	0.901	0.641	0.364
NCI-H1666	0.39	0.369	0.402	0.332	0.973	0.899	0.801	0.844	0.817	0.879	0.764	0.815	1.05	0.981	0.405	0.949	0.823	0.474
NCI-H1734	0.488	0.406	0.587	0.473	0.802	0.824	0.354	0.639	0.694	0.667	0.673	0.709	0.205	0.204	0.135	0.187	0.229	0.439
NCI-H1755	0.35	0.379	0.576	0.384	1.03	0.897	0.761	0.749	0.731	0.794	0.749	0.751	0.396	0.43	0.409	0.783	0.353	0.392
NCI-H1793	0.275	0.353	0.267	0.352	0.684	0.587	0.22	0.479	0.362	0.47	0.418	0.408	0.189	0.14	0.159	0.209	0.166	0.329

Cell Line	relative viability ([1]; first compound 0.01581 µM)	relative viability ([1]; first compound 0.05 µM)	relative viability ([1]; first compound 0.1581 µM)	relative viability ([1]; first compound 0.5 µM)	relative viability (NVP-TAE684 + Foretinib; first compound 0.2 µM)	relative viability (NVP-TAE684 + Foretinib; first compound 0.6325 µM)	relative viability (NVP-TAE684 + Foretinib; first compound 2 µM)	relative viability (Vandetanib + Trametinib; first compound 0.02 µM)	relative viability (Vandetanib + Trametinib; first compound 0.06325 µM)	relative viability (Vandetanib + Trametinib; first compound 0.2 µM)	relative viability (Vandetanib + Trametinib; first compound 0.6325 µM)	relative viability (Vandetanib + Trametinib; first compound 2 µM)	relative viability (Vandetanib + Luminespib; first compound 0.02 µM)	relative viability (Vandetanib + Luminespib; first compound 0.06325 µM)	relative viability (Vandetanib + Luminespib; first compound 0.2 µM)	relative viability (Vandetanib + Luminespib; first compound 0.6325 µM)	relative viability (Vandetanib + Luminespib; first compound 2 µM)	relative viability ([1]; first compound 0.005 µM)
NCI-H1915	0.929	0.923	1.1	0.879	1.04	1.1	0.902	0.29	0.291	0.29	0.329	0.292	0.744	0.808	0.766	0.766	0.733	0.933
NCI-H1944	0.33	0.355	0.362	0.319	0.847	0.929	0.533	0.456	0.427	0.425	0.402	0.369	0.811	0.743	0.745	0.676	0.651	0.369
NCI-H1975	0.28	0.284	0.307	0.255	1.2	0.911	0.497	0.356	0.344	0.378	0.35	0.365	0.347	0.27	0.224	0.173	0.236	0.262
NCI-H1993	0.963	0.848	0.64	0.745	0.766	0.746	0.553	0.568	0.552	0.499	0.545	0.494	0.951	0.785	0.538	0.838	0.721	0.862
NCI-H2009	0.644	0.845	1	0.835	1.07	1.14	1.09	0.263	0.252	0.286	0.282	0.275	1.04	0.998	0.17	1.07	1.03	0.853
NCI-H2023	0.205	0.209	0.265	0.239	0.656	0.739	0.461	0.498	0.507		0.556	0.49	0.811	0.604	0.796	0.731	0.497	0.283
NCI-H2085	0.43	0.39	0.483	0.388	0.987	0.967	0.485	0.549	0.499	0.5	0.593	0.484	0.451	0.384	0.269	0.478	0.398	0.43
NCI-H2087	0.856	0.883	1.04	0.92	1.05	1.2	0.638	0.211	0.221	0.23	0.213	0.2	0.183	0.197	0.132	0.179	0.255	0.873
NCI-H2126	0.493	0.417	0.526	0.487	1.13	1.22	0.84	0.58	0.546	0.556	0.502	0.504	0.882	0.855	0.888	0.914	0.687	0.499
NCI-H2170	0.298	0.292	0.394	0.32	1.1	0.997	0.999	0.905	0.875	0.931	0.896	0.858	0.715	0.606	0.689	0.616	0.823	
NCI-H2228	0.283	0.37	0.307	0.402	0.445	0.238	0.123	0.511	0.386	0.561	0.64	0.28	0.153	0.176	0.116	0.143	0.116	0.341
NCI-H2347	0.695	0.659	0.756	0.609		1.15	0.521	0.28	0.278	0.254	0.283	0.28	0.594		0.333	0.642	0.574	0.474
NCI-H2405	0.378	0.397	0.506	0.422	1	0.966	0.575	0.63	0.458	0.714	0.653	0.616	0.736	0.539	0.776	0.642	0.55	0.456
NCI-H3122	0.655	0.603	0.613	0.64	0.218	0.274	0.101	0.208	0.186	0.113	0.259	0.204	0.0842	0.111	0.0787	0.0959	0.0934	0.62
PC-3 [JPC-3]	0.643	0.722	0.731	0.672	1.2	0.99	0.793	0.682	0.577	0.584	0.513	0.435	0.724	0.661	0.639	0.745	0.524	0.605
PC-14	0.785	0.778	0.498	0.533	0.689	1.12	1.03	0.725	0.51	0.071	0.109	0.0866	0.234	0.152	0.184	0.13	0.131	
RERF-LC-KJ	0.64	0.48	0.529	0.403	0.853	0.931	0.771	0.808	0.933	0.528	0.831	0.688	1.1	1.21	1.29	1.14	1.12	0.739
